Measured values as given in patent US9284280B2, “Use of form-I crystal of 2-{4-[N-(5,6-diphenylpyrazin-2-yl)-N-isopropylamino]butyloxy}-N-(methylsulfonyl)acetamide” (NIPPON SHINYAKU CO., LTD., priority 2009, dated 2016).

Experiments:
[1] = molecular target: PGI2 (Homo sapiens, UniProt P43119); conditions: background statement, see WO 2002/088084; cited from earlier work
[2] = Measurement of particle size distribution of the crystals (HORIBA LA-910) and observation with electron scanning microscope; format: physicochemical; conditions: for D10: Cumulative undersize particle diameter at 10% of volumetric ratio / D50: Cumulative undersize particle diameter at 50% of volumetric ratio / D90: Cumulative undersize particle diameter at 90% of volumetric ratio: crystals dispersed with ultrasonic wave in saturated solution of compound A in 0.1 v/v % Polysorbate 80 aqueous solution
Experimental: After a dispersant (10 mL) was added to the crystals of the invention (20 mg) followed by shaking up, the crystals of the invention were dispersed with ultrasonic wave. The particle size distributions of the crystals of the invention were measured by using HORIBA LA-910. The dispersant used is a filtered saturated solution of compound A in 0.1 v/v % Polysorbate 80 aqueous solution. D10: Cumulative undersize particle diameter at 10% of volumetric ratio [μm] D50: Cumulative undersize particle diameter at 50% of volumetric ratio [μm] D90: Cumulative undersize particle diameter at 90% of volumetric ratio [μm] (2) Observation of the Crystals of the Invention with Electron Scanning Microscope The crystals were observed through an electron scanning microscope (HITACHI HIGH TECHNOLOGIES TM-1000 Miniscope).

PGI2, sequence (P43119 whole entry): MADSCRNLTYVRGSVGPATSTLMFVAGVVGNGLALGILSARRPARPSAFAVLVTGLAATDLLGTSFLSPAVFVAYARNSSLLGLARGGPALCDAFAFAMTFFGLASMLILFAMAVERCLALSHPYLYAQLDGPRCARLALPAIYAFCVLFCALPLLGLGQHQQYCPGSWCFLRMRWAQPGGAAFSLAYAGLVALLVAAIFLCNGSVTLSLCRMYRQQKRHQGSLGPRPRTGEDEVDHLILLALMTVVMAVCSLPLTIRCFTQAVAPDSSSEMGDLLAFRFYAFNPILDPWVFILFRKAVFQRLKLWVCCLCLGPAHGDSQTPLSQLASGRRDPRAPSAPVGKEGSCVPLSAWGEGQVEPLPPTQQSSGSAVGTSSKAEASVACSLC

D10: Cumulative undersize particle diameter at 10% of volumetric ratio [2]	D50: Cumulative undersize particle diameter at 50% of volumetric ratio [2]	D90: Cumulative undersize particle diameter at 90% of volumetric ratio [2]	Structure (SMILES)	PGI2 agonistic effect [1]	particle size compared between crystal forms ([2]; conclusion from particle size distribution and electron scanning micrographs)
–	–	–	CC(C)N(CCCCOCC(=O)NS(C)(=O)=O)c1cnc(-c2ccccc2)c(-c2ccccc2)n1 [Compound A, 2-{4-[N-(5,6-diphenylpyrazin-2-yl)-N-isopropylamino]butyloxy}-N-(methylsulfonyl)acetamide]	excellent PGI2 agonistic effect	–
5.2 μm	11.3 μm	22.0 μm	CC(C)N(CCCCOCC(=O)NS(C)(=O)=O)c1cnc(-c2ccccc2)c(-c2ccccc2)n1 [Form-II Crystal of the Invention, 2-{4-[N-(5,6-diphenylpyrazin-2-yl)-N-isopropylamino]butyloxy}-N-(methylsulfonyl)acetamide]	–	–
5.6 μm	12.8 μm	25.8 μm	CC(C)N(CCCCOCC(=O)NS(C)(=O)=O)c1cnc(-c2ccccc2)c(-c2ccccc2)n1 [Form-I Crystal of the Invention, 2-{4-[N-(5,6-diphenylpyrazin-2-yl)-N-isopropylamino]butyloxy}-N-(methylsulfonyl)acetamide]	–	larger than those of Form-II and Form-III crystals
4.3 μm	8.0 μm	14.4 μm	CC(C)N(CCCCOCC(=O)NS(C)(=O)=O)c1cnc(-c2ccccc2)c(-c2ccccc2)n1 [Form-III Crystal of the Invention, 2-{4-[N-(5,6-diphenylpyrazin-2-yl)-N-isopropylamino]butyloxy}-N-(methylsulfonyl)acetamide]	–	–
